Reference: patent US12214036B2, “Combination therapy comprising AXL/MER and PD-1/PD-L1 inhibitors” (Incyte Corporation, priority 2020, dated 2025)
“Also recorded” adds a separate entry of the source.

Tested on: human PBMCs co-cultured with H1299 cells
Assay: H1299 / PBMC co-culture cytokine assay
Format: cell-based
Conditions: 4 days, stimulated PBMCs + H1299, FIG. 6
Protocol: The ability of Compound 1 to cooperate with checkpoint blockade to further boost antitumor responses was evaluated. H1299 lung cancer cells were co-cultured with stimulated human PBMCs treated with Compound 1, anti-human programmed cell death (PD)-1 antibody retifanlimab or the combination, and production of proinflammatory cytokines was assessed in two different experiments (FIG. 6).
H1299 cells were co-cultured with human PBMCs, each at 4 or 16×10^4 cells/mL in RPMI containing 10% FBS, 100 U/mL of penicillin-streptomycin (ThermoFisher Scientific; #15140-122) and 1× beta-mercaptoethanol (ThermoFisher Scientific; #21985-023). Compound 1 or retifanlimab were added as single agents or in combination to the cells. Anti-CD3 (BD Biosciences #555336), anti-CD28 (BD Biosciences #555725) or SEA (Toxin Technology, Sarasota, Fla.; #AT101red) were added at a final concentration of 1 μg/mL, 0.5 μg/mL or 100 ng/mL, respectively, to stimulate cell growth. Cultures were incubated at 37° C. in 5% CO2 incubator for 4 days. The supernatant was collected for cytokine analysis using a multiplex assay system (custom human ProcartaPlex Luminex kit, ThermoFisher Scientific; #PPX-15-MXRWE6P).

## retifanlimab: humanized, IgG4 monoclonal antibody that binds to human PD-1; heavy chain SEQ ID NO:2, light chain SEQ ID NO:3
  proinflammatory cytokine production: induced these cytokines in a subset of donors; also recorded: induction of proinflammatory cytokines
